Assay results reported in patent US20230111310A1, “CARBOXYLIC ACID DERIVATIVE-SUBSTITUTED IMINO ARYL COMPOUND, PREPARATION METHOD THEREFOR, HERBICIDAL COMPOSITION AND USE THEREOF” (Qingdao Kingagroot Chemical Compound Co., Ltd., priority 2020, published 2023).

Tests used:
Type in all cases: in vivo
Abutilon theophrasti [1] = assay: Weeding effect in post-emergence stage; conditions: Dose 15 g/ha; level of fresh weight growth control rate
In short: (§1)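 Post-emergence spray tower; 2-3 leaf plants (2 wk after sowing, soil pots, greenhouse). Formulation: acetone, Tween 80, methyl oleate EC 1.5 liter/ha as synergist, water. Rates 500–7.5 g/ha. Growth control rate read at 3 wk; n=3, averaged.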

Alopecurus japonicus = assay: Weeding effect in post-emergence stage; conditions: Dose 15 g/ha; level of fresh weight growth control rate
In short: as §1

Digitaria sanguinalis = assay: Weeding effect in post-emergence stage; conditions: Dose 15 g/ha; level of fresh weight growth control rate
In short: as §1

Eleusine indica = assay: Weeding effect in post-emergence stage; conditions: Dose 15 g/ha; level of fresh weight growth control rate
In short: as §1

Setaria viridis [2] = assay: Weeding effect in post-emergence stage; conditions: Dose 15 g/ha; level of fresh weight growth control rate
In short: as §1

Echinochloa crusgalli = assay: Weeding effect in post-emergence stage; conditions: Dose 15 g/ha; level of fresh weight growth control rate
In short: as §1

Abutilon theophrasti [3] = assay: Weeding effect in pre-emergence stage; conditions: 30 g/ha, 4 weeks
Protocol: (§2) The activity level criteria for plant damage (i.e., growth control rate) are as follows:
(§3) The aforementioned seeds of monocotyledonous and dicotyledonous weeds and main crops were put into a plastic pot loaded with soil and covered with 0.5-2 cm soil. The test compounds of the present invention was dissolved with acetone, then added with tween 80, diluted by a certain amount of water to reach a certain concentration, and sprayed immediately after sowing. The obtained seeds were incubated for 4 weeks in the greenhouse after spraying and the test results were observed. It was observed that the herbicide mostly had excellent effect at the application rate of 500, 250, 125, 60, 30, 15, 7.5 g/ha, especially to weeds such as Echinochloa crusgalli. Digitaria sanguinalis and Abutilon theophrasti, etc. And many compounds had good selectivity for corn, cotton, wheat, rice, soybean, and peanut etc. In addition, evaluate the weed control effect with the above activity standard level.

Amaranthus retroflexus = assay: Weeding effect in pre-emergence stage; conditions: 30 g/ha, 4 weeks
Protocol: as §2, §3

Capsella bursa-pastoris = assay: Weeding effect in pre-emergence stage; conditions: 30 g/ha, 4 weeks
Protocol: as §2, §3

Descurainia sophia = assay: Weeding effect in pre-emergence stage; conditions: 30 g/ha, 4 weeks
Protocol: as §2, §3

Setaria viridis [4] = assay: Weeding effect in pre-emergence stage; conditions: 30 g/ha, 4 weeks
Protocol: as §2, §3

Veronica didyma Tenore = assay: Weeding effect in pre-emergence stage; conditions: 30 g/ha, 4 weeks
Protocol: as §2, §3

Peanut = assay: Pre-emergence stage, crop selectivity; conditions: 30 g/ha, 4 weeks
Protocol: as §2, §3

Soybeans = assay: Pre-emergence stage, crop selectivity; conditions: 30 g/ha, 4 weeks
Protocol: as §2, §3

corn = assay: Pre-emergence stage, crop selectivity; conditions: 30 g/ha, 4 weeks
Protocol: as §2, §3

cotton = assay: Pre-emergence stage, crop selectivity; conditions: 30 g/ha, 4 weeks
Protocol: as §2, §3

| Structure (SMILES) | Weeding effect in post-emergence stage, Abutilon theophrasti (Abutilon theophrasti [1]) | Weeding effect in post-emergence stage, Alopecurus japonicus (Alopecurus japonicus) | Weeding effect in post-emergence stage, Digitaria sanguinalis (Digitaria sanguinalis) | Weeding effect in post-emergence stage, Eleusine indica (Eleusine indica) | Weeding effect in post-emergence stage, Setaria viridis (Setaria viridis [2]) | Weeding effect in post-emergence stage, Echinochloa crusgalli (Echinochloa crusgalli) | activity level (growth control rate) Abutilon theophrasti (Abutilon theophrasti [3]) | activity level (growth control rate) Amaranthus retroflexus (Amaranthus retroflexus) | activity level (growth control rate) Capsella bursa-pastoris (Capsella bursa-pastoris) | activity level (growth control rate) Descurainia sophia (Descurainia sophia) | activity level (growth control rate) Setaria viridis (Setaria viridis [4]) | activity level (growth control rate) Veronica didyma Tenore (Veronica didyma Tenore) | plant damage level Peanut (Peanut) | plant damage level Soybeans (Soybeans) | plant damage level Corn (corn) | plant damage level Cotton (cotton) |
| --- | --- | --- | --- | --- | --- | --- | --- | --- | --- | --- | --- | --- | --- | --- | --- | --- |
| CCOC(=O)OC(C)OC(=O)[C@@H](C)O/N=C/c1cc(-n2c(=O)cc(C(F)(F)F)n(C)c2=O)c(F)cc1Cl (stereo partly drawn) [246(R)] | 5 (Level 5: growth control rate is above 85%) | 5 (Level 5: growth control rate is above 85%) | 5 (Level 5: growth control rate is above 85%) | 5 (Level 5: growth control rate is above 85%) | 5 (Level 5: growth control rate is above 85%) | 5 (Level 5: growth control rate is above 85%) | 5 (Level 5: growth control rate is above 85%) | 5 (Level 5: growth control rate is above 85%) | 5 (Level 5: growth control rate is above 85%) | 5 (Level 5: growth control rate is above 85%) | 5 (Level 5: growth control rate is above 85%) | 5 (Level 5: growth control rate is above 85%) | 0 (Level 0: growth control rate is less than 5%) | 0 (Level 0: growth control rate is less than 5%) | 0 (Level 0: growth control rate is less than 5%) | 0 (Level 0: growth control rate is less than 5%) |
| CC(C)=NOC(=O)[C@@H](C)O/N=C/c1cc(-n2c(=O)cc(C(F)(F)F)n(C)c2=O)c(F)cc1Cl [248(R)] | 5 (Level 5: growth control rate is above 85%) | 5 (Level 5: growth control rate is above 85%) | 5 (Level 5: growth control rate is above 85%) | 5 (Level 5: growth control rate is above 85%) | 5 (Level 5: growth control rate is above 85%) | 5 (Level 5: growth control rate is above 85%) | 5 (Level 5: growth control rate is above 85%) | 5 (Level 5: growth control rate is above 85%) | 5 (Level 5: growth control rate is above 85%) | 5 (Level 5: growth control rate is above 85%) | 5 (Level 5: growth control rate is above 85%) | 5 (Level 5: growth control rate is above 85%) | 0 (Level 0: growth control rate is less than 5%) | 0 (Level 0: growth control rate is less than 5%) | 0 (Level 0: growth control rate is less than 5%) | 0 (Level 0: growth control rate is less than 5%) |
| CC/C(C)=N/OC(=O)[C@@H](C)O/N=C/c1cc(-n2c(=O)cc(C(F)(F)F)n(C)c2=O)c(F)cc1Cl [249(R)] | 5 (Level 5: growth control rate is above 85%) | 5 (Level 5: growth control rate is above 85%) | 5 (Level 5: growth control rate is above 85%) | 5 (Level 5: growth control rate is above 85%) | 5 (Level 5: growth control rate is above 85%) | 5 (Level 5: growth control rate is above 85%) | 5 (Level 5: growth control rate is above 85%) | 5 (Level 5: growth control rate is above 85%) | 5 (Level 5: growth control rate is above 85%) | 5 (Level 5: growth control rate is above 85%) | 5 (Level 5: growth control rate is above 85%) | 5 (Level 5: growth control rate is above 85%) | 0 (Level 0: growth control rate is less than 5%) | 0 (Level 0: growth control rate is less than 5%) | 0 (Level 0: growth control rate is less than 5%) | 0 (Level 0: growth control rate is less than 5%) |
| COC/C(C)=N/OC(=O)[C@@H](C)O/N=C/c1cc(-n2c(=O)cc(C(F)(F)F)n(C)c2=O)c(F)cc1Cl [253(R)] | 5 (Level 5: growth control rate is above 85%) | 5 (Level 5: growth control rate is above 85%) | 5 (Level 5: growth control rate is above 85%) | 5 (Level 5: growth control rate is above 85%) | 5 (Level 5: growth control rate is above 85%) | 5 (Level 5: growth control rate is above 85%) | 5 (Level 5: growth control rate is above 85%) | 5 (Level 5: growth control rate is above 85%) | 5 (Level 5: growth control rate is above 85%) | 5 (Level 5: growth control rate is above 85%) | 5 (Level 5: growth control rate is above 85%) | 5 (Level 5: growth control rate is above 85%) | 0 (Level 0: growth control rate is less than 5%) | 0 (Level 0: growth control rate is less than 5%) | 0 (Level 0: growth control rate is less than 5%) | 0 (Level 0: growth control rate is less than 5%) |
| C[C@@H](O/N=C/c1cc(-n2c(=O)cc(C(F)(F)F)n(C)c2=O)c(F)cc1Cl)C(=O)ON=C1CCCC1 [258(R)] | 5 (Level 5: growth control rate is above 85%) | 4 (Level 4: growth control rate is greater than or equal to 60% and less than 85%) | 5 (Level 5: growth control rate is above 85%) | 5 (Level 5: growth control rate is above 85%) | 5 (Level 5: growth control rate is above 85%) | 5 (Level 5: growth control rate is above 85%) | 5 (Level 5: growth control rate is above 85%) | 5 (Level 5: growth control rate is above 85%) | 5 (Level 5: growth control rate is above 85%) | 5 (Level 5: growth control rate is above 85%) | 5 (Level 5: growth control rate is above 85%) | 5 (Level 5: growth control rate is above 85%) | 0 (Level 0: growth control rate is less than 5%) | 0 (Level 0: growth control rate is less than 5%) | 0 (Level 0: growth control rate is less than 5%) | 0 (Level 0: growth control rate is less than 5%) |
